Measured values as given in patent US12662479B2 (Foghorn Therapeutics Inc., priority 2020, dated 2026).

Key:
[1] = molecular target: T1, HiBit-BRG1 fusion protein (Homo sapiens, UniProt P51532); assay: HiBiT-BRG1 cell-based degradation assay (Nano-Glo HiBiT Lytic Detection, 24 h); conditions: HeLa cells expressing HiBit-BRG1 and LgBit; for DC50: read-out: BRG1 HiBit Degradation IC50; for Dmax: HeLa, top dose 30 μM, read-out: BRG1 HiBit Degradation Maximum measured
T1 construct: expressed in transfected cells
T1 sequence (P51532 whole entry, the tested form may be a part): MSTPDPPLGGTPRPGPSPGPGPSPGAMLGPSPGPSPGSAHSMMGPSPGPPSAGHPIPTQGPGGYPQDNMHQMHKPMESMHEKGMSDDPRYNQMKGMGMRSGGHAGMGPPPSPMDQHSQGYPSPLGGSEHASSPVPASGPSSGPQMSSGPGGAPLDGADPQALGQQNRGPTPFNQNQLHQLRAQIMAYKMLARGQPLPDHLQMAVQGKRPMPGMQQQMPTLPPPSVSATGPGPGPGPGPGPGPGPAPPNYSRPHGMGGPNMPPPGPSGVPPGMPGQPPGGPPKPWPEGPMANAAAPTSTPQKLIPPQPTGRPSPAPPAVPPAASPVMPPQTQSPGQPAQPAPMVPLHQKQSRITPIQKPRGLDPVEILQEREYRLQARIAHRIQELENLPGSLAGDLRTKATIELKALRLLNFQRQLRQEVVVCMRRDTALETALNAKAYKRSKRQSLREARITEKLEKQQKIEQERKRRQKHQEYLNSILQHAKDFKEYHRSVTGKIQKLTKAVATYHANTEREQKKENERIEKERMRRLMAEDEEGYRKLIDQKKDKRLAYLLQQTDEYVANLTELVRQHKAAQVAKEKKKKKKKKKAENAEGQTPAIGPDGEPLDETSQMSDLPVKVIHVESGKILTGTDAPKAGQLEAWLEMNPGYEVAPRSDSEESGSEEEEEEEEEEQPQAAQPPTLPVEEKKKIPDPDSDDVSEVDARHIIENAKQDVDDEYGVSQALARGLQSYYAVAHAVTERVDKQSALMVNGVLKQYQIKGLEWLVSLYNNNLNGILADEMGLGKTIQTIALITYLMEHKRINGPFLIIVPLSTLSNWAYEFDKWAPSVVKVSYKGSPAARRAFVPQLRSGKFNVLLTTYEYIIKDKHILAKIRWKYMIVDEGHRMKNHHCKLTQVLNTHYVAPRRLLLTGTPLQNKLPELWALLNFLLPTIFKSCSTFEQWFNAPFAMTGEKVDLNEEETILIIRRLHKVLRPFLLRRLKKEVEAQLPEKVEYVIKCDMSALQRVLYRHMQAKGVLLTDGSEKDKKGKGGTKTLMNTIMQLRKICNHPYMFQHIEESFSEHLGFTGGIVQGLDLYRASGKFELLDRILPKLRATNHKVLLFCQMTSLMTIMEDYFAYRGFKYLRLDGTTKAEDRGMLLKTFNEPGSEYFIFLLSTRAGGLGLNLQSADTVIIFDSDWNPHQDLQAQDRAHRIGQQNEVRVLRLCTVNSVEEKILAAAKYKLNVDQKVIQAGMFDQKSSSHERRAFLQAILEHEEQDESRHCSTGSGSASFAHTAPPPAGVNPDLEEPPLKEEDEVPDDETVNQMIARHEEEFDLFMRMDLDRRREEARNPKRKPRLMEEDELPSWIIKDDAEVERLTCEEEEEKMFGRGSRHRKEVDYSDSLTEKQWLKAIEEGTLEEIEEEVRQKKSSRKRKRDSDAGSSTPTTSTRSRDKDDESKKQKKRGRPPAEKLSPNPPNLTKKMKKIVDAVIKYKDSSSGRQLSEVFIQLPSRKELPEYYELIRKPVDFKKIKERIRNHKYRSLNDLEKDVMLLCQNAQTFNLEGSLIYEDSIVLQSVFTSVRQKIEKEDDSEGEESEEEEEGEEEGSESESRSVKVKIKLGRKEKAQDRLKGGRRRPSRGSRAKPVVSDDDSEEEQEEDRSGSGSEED
Outline: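 Degradation is scaled from DMSO-treated cells (0%) to cells given 2 μM of a known BRM/BRG1 degrader (100%). HeLa cells stably carrying HiBiT-BRG1 plus LgBiT (5000/well) were lysed with Nano-Glo HiBiT detection reagent, shaken 10 min at RT, and luminescence read.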

[2] = molecular target: T2, HiBit-BRM fusion protein (Homo sapiens, UniProt P51531); assay: HiBiT-BRM cell-based degradation assay (Nano-Glo HiBiT Lytic Detection, 24 h); conditions: HeLa cells expressing HiBiT-BRM; for DC50: read-out: BRM HiBit Degradation IC50; for BRM HiBit Degradation Maximum measured: top dose 30 μM
T2 construct: expressed in transfected cells
T2 sequence (P51531 whole entry, the tested form may be a part): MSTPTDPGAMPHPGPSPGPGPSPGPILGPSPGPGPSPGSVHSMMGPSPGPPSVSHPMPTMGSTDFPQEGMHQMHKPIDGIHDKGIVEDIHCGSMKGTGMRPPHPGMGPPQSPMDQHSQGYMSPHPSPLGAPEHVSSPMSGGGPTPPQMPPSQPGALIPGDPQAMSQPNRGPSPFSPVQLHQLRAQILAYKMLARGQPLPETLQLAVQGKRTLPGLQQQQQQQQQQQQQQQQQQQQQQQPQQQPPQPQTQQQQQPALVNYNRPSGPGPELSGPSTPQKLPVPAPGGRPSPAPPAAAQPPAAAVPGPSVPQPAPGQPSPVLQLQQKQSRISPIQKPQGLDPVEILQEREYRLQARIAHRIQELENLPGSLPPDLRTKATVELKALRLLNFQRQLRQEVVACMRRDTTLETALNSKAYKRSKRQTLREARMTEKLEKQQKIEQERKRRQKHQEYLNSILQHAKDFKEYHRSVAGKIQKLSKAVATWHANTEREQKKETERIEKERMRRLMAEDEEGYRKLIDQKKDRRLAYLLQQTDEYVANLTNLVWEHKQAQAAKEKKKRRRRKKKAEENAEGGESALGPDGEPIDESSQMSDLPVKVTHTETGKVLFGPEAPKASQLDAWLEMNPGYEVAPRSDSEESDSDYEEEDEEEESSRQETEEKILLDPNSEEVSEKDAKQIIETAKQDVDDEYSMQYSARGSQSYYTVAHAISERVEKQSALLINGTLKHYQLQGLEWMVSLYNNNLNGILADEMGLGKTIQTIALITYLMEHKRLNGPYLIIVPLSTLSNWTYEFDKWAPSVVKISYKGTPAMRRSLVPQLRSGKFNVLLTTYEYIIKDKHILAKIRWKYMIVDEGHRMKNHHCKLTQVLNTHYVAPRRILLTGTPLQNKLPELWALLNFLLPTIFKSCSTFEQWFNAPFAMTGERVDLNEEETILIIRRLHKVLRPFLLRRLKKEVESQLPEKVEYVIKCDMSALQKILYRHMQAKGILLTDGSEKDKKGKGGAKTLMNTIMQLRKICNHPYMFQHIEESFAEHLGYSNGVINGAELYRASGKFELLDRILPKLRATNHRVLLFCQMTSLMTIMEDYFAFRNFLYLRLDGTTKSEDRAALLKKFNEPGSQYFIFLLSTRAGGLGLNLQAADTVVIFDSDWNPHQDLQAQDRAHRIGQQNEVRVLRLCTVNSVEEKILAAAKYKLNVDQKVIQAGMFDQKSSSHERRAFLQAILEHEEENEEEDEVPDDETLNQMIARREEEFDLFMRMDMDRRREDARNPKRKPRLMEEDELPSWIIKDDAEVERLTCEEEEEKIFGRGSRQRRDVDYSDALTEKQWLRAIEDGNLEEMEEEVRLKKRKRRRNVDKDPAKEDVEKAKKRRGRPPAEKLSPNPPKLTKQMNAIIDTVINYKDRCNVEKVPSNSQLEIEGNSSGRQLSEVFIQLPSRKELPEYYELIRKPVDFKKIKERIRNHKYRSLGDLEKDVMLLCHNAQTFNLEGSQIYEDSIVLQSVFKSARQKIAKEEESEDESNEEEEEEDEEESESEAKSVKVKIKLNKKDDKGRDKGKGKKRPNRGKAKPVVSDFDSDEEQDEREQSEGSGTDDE
Outline: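 Stable HiBiT-BRM HeLa line; 24 h compound exposure, top final 30 μM, 3-fold, 10 pts in duplicate. Lytic HiBiT/LgBiT luminescence readout. % degradation vs DMSO (0%) and 2 μM known BRM/BRG1 degrader (100%).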

| SMILES | DC50 [1] [µM] | Dmax [1] [%] | DC50 [2] [µM] | BRM HiBit Degradation Maximum measured [2] |
| --- | --- | --- | --- | --- |
| Cc1ncsc1-c1ccc(CNC(=O)[C@@H]2C[C@@H](O)CN2C(=O)[C@@H](NCc2cccc(-c3cccc(-c4csc(NC(=O)CNC(=O)c5ccn(S(C)(=O)=O)c5)n4)c3)c2)C(C)(C)C)cc1 [Compound 164, (2S,4R)-4-hydroxy-1-[(2S)-2-([[3′-(2-[2-[(1-methanesulfonylpyrrol-3-yl)formamido]acetamido]-1,3-thiazol-4-yl)-[1,1′-biphenyl]-3-yl]methyl]amino)-3,3-dimethylbutanoyl]-N-[[4-(4-methyl-1,3-thiazol-5-yl)phenyl]methyl]pyrrolidine-2-carboxamide] | > 10 | < 50 | > 10 | C (‘C’ = Maximum degradation <50%) |
| CS(=O)(=O)n1ccc(C(=O)N[C@@H](CCOCCCC(=O)N2CC(COc3ccc4c(c3)C(=O)N(C3CCC(=O)NC3=O)C4=O)C2)C(=O)Nc2nc(-c3ccccc3)cs2)c1 (stereo partly drawn) [Compound 260, (2S)-4-[4-[3-([[2-(2,6-dioxopiperidin-3-yl)-1,3-dioxoisoindol-5-yl]oxy]methyl)azetidin-1-yl]-4-oxobutoxy]-2-[(1-methanesulfonylpyrrol-3-yl)formamido]-N-(4-phenyl-1,3-thiazol-2-yl)butanamide] | > 10 | < 50 | > 10 | C (‘C’ = Maximum degradation <50%) |
| CS(=O)(=O)n1ccc(C(=O)NCC(=O)Nc2nc(-c3cccc(-c4ccnc(OCCNC(=O)CCCOc5cccc6c5C(=O)N(C5CCC(=O)NC5=O)C6=O)c4)c3)cs2)c1 (centres unmarked) [Compound 36, N-[2-[[4-[3-[2-[2-[4-[2-(2,6-dioxo-3-piperidyl)-1,3-dioxo-isoindolin-4-yl]oxybutanoylamino]ethoxy]-4-pyridyl]phenyl]thiazol-2-yl]amino]-2-oxo-ethyl]-1-methylsulfonyl-pyrrole-3-carboxamide] | > 10 | < 50 | > 10 | C (‘C’ = Maximum degradation <50%) |
| CS(=O)(=O)n1ccc(C(=O)NCC(=O)Nc2nc(-c3cccc(-c4ccnc(C5(C(=O)N6CCC(C7CCN(C(=O)COc8cccc9c8C(=O)N(C8CCC(=O)NC8=O)C9=O)CC7)CC6)CC5)c4)c3)cs2)c1 (centres unmarked) [Compound 14, N-(2-((4-(3-(2-(1-(1′-(2-((2-(2,6-dioxopiperidin-3-yl)-1,3-dioxoisoindolin-4-yl)oxy)acetyl)-[4,4′-bipiperidine]-1-carbonyl)cyclopropyl)pyridin-4-yl)phenyl)thiazol-2-yl)amino)-2-oxoethyl)-1-(methylsulfonyl)-1H-pyrrole-3-carboxamide] | > 10 | < 50 | > 10 | C (‘C’ = Maximum degradation <50%) |
| Cc1ncsc1-c1ccc(CNC(=O)[C@@H]2C[C@@H](O)CN2C(=O)[C@@H](NC(=O)COCCOCCNC(=O)CN(C)c2cc(-c3cccc(-c4csc(NC(=O)CNC(=O)c5ccn(S(C)(=O)=O)c5)n4)c3)ccn2)C(C)(C)C)cc1 [Compound 94, N-(2-((4-(3-(2-(((S)-13-((2S,4R)-4-hydroxy-2-((4-(4-methylthiazol-5-yl)benzyl)carbamoyl)pyrrolidine-1-carbonyl)-14,14-dimethyl-2,11-dioxo-6,9-dioxa-3,12-diazapentadecyl)(methyl)amino)-pyridin-4-yl)phenyl)thiazol-2-yl)amino)-2-oxoethyl)-1-(methylsulfonyl)-1H-pyrrole-3-carboxamide] | > 10 | < 50 | > 10 | C (‘C’ = Maximum degradation <50%) |
| Cc1ncsc1-c1ccc(CNC(=O)[C@@H]2C[C@@H](O)CN2C(=O)[C@@H](NC(=O)CCCCCCCCCCCCCCCC(=O)NCc2cccc(-c3cccc(-c4csc(NC(=O)CNC(=O)c5ccn(S(C)(=O)=O)c5)n4)c3)c2)C(C)(C)C)cc1 [Compound 124, N1-((S)-1-((2S,4R)-4-hydroxy-2-((4-(4-methylthiazol-5-yl)benzyl)carbamoyl)pyrrolidin-1-yl)-3,3-dimethyl-1-oxobutan-2-yl)-N17-((3′-(2-(2-(1-(methylsulfonyl)-1H-pyrrole-3-carboxamido)acetamido)thiazol-4-yl)-[1,1′-biphenyl]-3-yl)methyl)heptadecanediamide] | > 10 | < 50 | > 10 | C (‘C’ = Maximum degradation <50%) |
| Cc1ncsc1-c1ccc(CNC(=O)[C@@H]2C[C@@H](O)CN2C(=O)[C@@H](NC(=O)CCCCCCCNC(=O)C2(c3cc(-c4cccc(-c5csc(NC(=O)CNC(=O)c6ccn(S(C)(=O)=O)c6)n5)c4)ccn3)CC2)C(C)(C)C)cc1 [Compound 99, N-(2-((4-(3-(2-(1-((8-(((S)-1-((2S,4R)-4-hydroxy-2-((4-(4-methylthiazol-5-yl)benzyl)carbamoyl)pyrrolidin-1-yl)-3,3-dimethyl-1-oxobutan-2-yl)amino)-8-oxooctyl)carbamoyl)cyclopropyl)-pyridin-4-yl)phenyl)thiazol-2-yl)amino)-2-oxoethyl)-1-(methylsulfonyl)-1H-pyrrole-3-carboxamide] | < 0.1 | > 75 | < 0.1 | A (‘A’ = Maximum degradation >75%) |

Other lines, results leading:

| DC50 [1] [µM] | Dmax [1] [%] | DC50 [2] [µM] | BRM HiBit Degradation Maximum measured [2] | SMILES |
| --- | --- | --- | --- | --- |
| > 10 | < 50 | > 10 | C (‘C’ = Maximum degradation <50%) | CS(=O)(=O)n1ccc(C(=O)N[C@@H](CCOCCCC(=O)NCCCC#Cc2ccc3c(c2)C(=O)N(C2CCC(=O)NC2=O)C3=O)C(=O)Nc2nc(-c3ccccc3)cs2)c1 (stereo partly drawn) [Compound 271, (2S)-4-[3-([5-[2-(2,6-dioxopiperidin-3-yl)-1,3-dioxoisoindol-5-yl]pent-4-yn-1-yl]carbamoyl)propoxy]-2-[(1-methanesulfonylpyrrol-3-yl)formamido]-N-(4-phenyl-1,3-thiazol-2-yl)butanamide] |
| > 10 | < 50 | > 10 | C (‘C’ = Maximum degradation <50%) | CS(=O)(=O)n1ccc(C(=O)N[C@@H](CCOCCCC(=O)NCCNc2ccc3c(c2)C(=O)N(C2CCC(=O)NC2=O)C3=O)C(=O)Nc2nc(-c3ccccc3)cs2)c1 (stereo partly drawn) [Compound 286, (2S)-4-[3-[(2-[[2-(2,6-dioxopiperidin-3-yl)-1,3-dioxoisoindol-5-yl]amino]ethyl)carbamoyl]propoxy]-2-[(1-methanesulfonylpyrrol-3-yl)formamido]-N-(4-phenyl-1,3-thiazol-2-yl)butanamide] |
| > 10 | < 50 | > 10 | C (‘C’ = Maximum degradation <50%) | Cc1ncsc1-c1ccc(CNC(=O)[C@@H]2C[C@@H](O)CN2C(=O)[C@@H](NC(=O)CCCCCCCCCCC(=O)NCCCC[C@H](NC(=O)c2ccn(S(C)(=O)=O)c2)C(=O)Nc2nc(-c3ccccc3)cs2)C(C)(C)C)cc1 [Compound 265] |
| > 10 | < 50 | > 10 | C (‘C’ = Maximum degradation <50%) | CS(=O)(=O)n1ccc(C(=O)N[C@@H](COCc2ccc(CNC(=O)CCCOc3cccc4c3C(=O)N(C3CCC(=O)NC3=O)C4=O)cc2)C(=O)Nc2nc(-c3ccccc3)cs2)c1 (stereo partly drawn) [Compound 178, 4-[[2-(2,6-dioxopiperidin-3-yl)-1,3-dioxoisoindol-4-yl]oxy]-N-[(4-[[(2S)-2-[(1-methanesulfonylpyrrol-3-yl)formamido]-2-[(4-phenyl-1,3-thiazol-2-yl)carbamoyl]ethoxy]methyl]phenyl)methyl]butanamide] |
| > 10 | < 50 | > 10 | C (‘C’ = Maximum degradation <50%) | CS(=O)(=O)n1ccc(C(=O)N[C@@H](CCCCNC(=O)CCOCCOCCNc2ccc3c(c2)C(=O)N(C2CCC(=O)NC2=O)C3=O)C(=O)Nc2nc(-c3ccccc3)cs2)c1 (stereo partly drawn) [Compound 292, (2S)-6-[3-[2-(2-[[2-(2,6-dioxopiperidin-3-yl)-1,3-dioxoisoindol-5-yl]amino]ethoxy)ethoxy]propanamido]-2-[(1-methanesulfonylpyrrol-3-yl)formamido]-N-(4-phenyl-1,3-thiazol-2-yl)hexanamide] |
| > 10 | < 50 | > 10 | C (‘C’ = Maximum degradation <50%) | Cc1ncsc1-c1ccc(CNC(=O)[C@@H]2C[C@@H](O)CN2C(=O)[C@@H](NC(=O)CCCCCCC(=O)NCc2ccc(COC[C@H](NC(=O)c3ccn(S(C)(=O)=O)c3)C(=O)Nc3nc(-c4ccccc4)cs3)cc2)C(C)(C)C)cc1 [Compound 210, N-[(2S)-1-[(2S,4R)-4-hydroxy-2-([[4-(4-methyl-1,3-thiazol-5-yl)phenyl]methyl]carbamoyl)pyrrolidin-1-yl]-3,3-dimethyl-1-oxobutan-2-yl]-N′-[(4-[[(2S)-2-[(1-methanesulfonylpyrrol-3-yl)formamido]-2-[(4-phenyl-1,3-thiazol-2-yl)carbamoyl]ethoxy]methyl]phenyl)methyl]octanediamide] |
| > 10 | < 50 | > 10 | C (‘C’ = Maximum degradation <50%) | CS(=O)(=O)n1ccc(C(=O)N[C@@H](CCOCCCC(=O)NCCOc2ccc3c(c2)C(=O)N(C2CCC(=O)NC2=O)C3=O)C(=O)Nc2nc(-c3ccccc3)cs2)c1 (stereo partly drawn) [Compound 280, (2S)-4-[3-[(2-[[2-(2,6-dioxopiperidin-3-yl)-1,3-dioxoisoindol-5-yl]oxy]ethyl)carbamoyl]propoxy]-2-[(1-methanesulfonylpyrrol-3-yl)formamido]-N-(4-phenyl-1,3-thiazol-2-yl)butanamide] |
